From patent publication US20220169654A1, “New Organic Compounds” (Servier Pharmaceuticals LLC, priority 2020, published 2022)

Experiments:
HCT116 MTAP−/− = experiment: Inhibition of cellular proliferation, 4 days, Cell Titer Glo, HCT116 MTAP−/−; type: cell-based; conditions: Homo sapiens, HCT-116, 96 h, IC50 bin with Max Inh., read-out: 4 Day Relative Growth Inhibition (MTAP −/−)
Summary of the method: (§1)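 IC50 derived from blank-corrected ATP luminescence (Cell Titer Glo) expressed relative to within-plate 0.2% DMSO wells. Compound, as a 10-point 3-fold series, was added 24 h after seeding the MTAP+/+ or MTAP−/− HCT116 cells and incubated 4 days at 37° C./5% CO2.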

[1] = test system: SAM in HCT116 human colon carcinoma cell line with MTAP gene deleted (MTAP −/−); experiment: Cellular assay of target engagement (SAM), LC-MS/MS, 72 hrs; type: cell-based; conditions: HCT-116, IC50 bin with Max Inh., read-out: Cell 72 h SAM Inhibition (MTAP −/−)
Summary of the method: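 SAM levels were quantified by LC-MS/MS (m/z 399.2→250.1, d3-SAM internal standard) from cold methanol/acetic acid extracts, yielding IC50. Compound was applied as a 10-point 3-fold series for 72 hrs to MTAP −/− HCT116 cells seeded 24 hours before.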

MAT2A homodimer = target: T1, MAT2A homodimer (Homo sapiens, UniProt P31153); experiment: MAT2A inhibition (biochemical, liberated phosphate, PiColorLock Gold); conditions: recombinant MAT2A homodimer; IC50 bin with Max Inh.; read-out: Enzyme Inhibition Bin
T1 construct: inferred from Ni sepharose purification with imidazole elution; made in house; host or cells: Sf9 insect cells, baculovirus (Bac to Bac, pFASTBAC1)
T1 sequence (P31153 whole entry): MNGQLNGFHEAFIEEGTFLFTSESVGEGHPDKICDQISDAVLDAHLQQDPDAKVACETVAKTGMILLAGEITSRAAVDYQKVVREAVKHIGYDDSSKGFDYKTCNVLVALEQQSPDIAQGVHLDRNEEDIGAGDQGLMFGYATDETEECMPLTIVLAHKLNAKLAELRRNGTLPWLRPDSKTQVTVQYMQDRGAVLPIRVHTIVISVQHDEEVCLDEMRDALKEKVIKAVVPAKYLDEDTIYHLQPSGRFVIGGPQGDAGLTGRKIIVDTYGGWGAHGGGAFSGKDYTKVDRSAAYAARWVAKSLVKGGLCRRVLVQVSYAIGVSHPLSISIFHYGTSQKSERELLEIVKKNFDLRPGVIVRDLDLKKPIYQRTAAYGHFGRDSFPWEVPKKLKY
Summary of the method: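 Enzyme at 4 μg/mL and compound equilibrated 60 min at 25 °C, then 60 min reaction after adding substrate mix (500 μM ATP, 400 μM methionine). Released phosphate quantified by colorimetric kit against a phosphate standard curve to give IC50. Secondary format used 1 μg/mL enzyme with 5 h incubation.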

HCT116 MTAP+/+ = experiment: Inhibition of cellular proliferation, 4 days, Cell Titer Glo, HCT116 MTAP+/+; type: cell-based; conditions: Homo sapiens, HCT-116, 96 h, IC50 bin with Max Inh., read-out: 4 Day Relative Growth Inhibition (MTAP +/+)
Summary of the method: as §1

| SMILES | IC50 (HCT116 MTAP−/−) [nM] | IC50 [1] [nM] | IC50 (MAT2A homodimer) [nM] | IC50 (HCT116 MTAP+/+) [nM] |
| --- | --- | --- | --- | --- |
| Cn1cc2cc(-n3nc4c(C(F)F)cn(CC5CC5)c4c(-c4ccc(C5CC5)nc4)c3=O)ccc2n1 [Example 240, 5-(cyclopropylmethyl)-4-(6-cyclopropylpyridin-3-yl)-7-(difluoromethyl)-2-(2-methyl-2H-indazol-5-yl)-2,5-dihydro-3H-pyrrolo[3,2-c]pyridazin-3-one] | < 100 | < 100 | < 100 | 100 to 1000 |
| Cn1cc2cc(-n3nc4ccn(CC5CC5)c4c(-c4ccc(C#N)nc4)c3=O)ccc2n1 [Example 153, 5-(5-(cyclopropylmethyl)-2-(2-methyl-2H-indazol-5-yl)-3-oxo-3,5-dihydro-2H-pyrrolo[3,2-c]pyridazin-4-yl)picolinonitrile] | > 1000 | 100 to 1000 | 100 to 1000 | > 1000 |
| Cc1ccc(-c2c(=O)n(-c3ccc4nn(C)cc4c3)nc3c(C#N)cn(CC4CC4)c23)cn1 [Example 104, 5-(cyclopropylmethyl)-2-(2-methyl-2H-indazol-5-yl)-4-(6-methylpyridin-3-yl)-3-oxo-3,5-dihydro-2H-pyrrolo[3,2-c]pyridazine-7-carbonitrile] | < 100 | < 100 | < 100 | > 1000 |
| CC(=O)c1cn(CC2CC2)c2c(-c3ccc(C4CC4)nc3)c(=O)n(-c3ccc4nn(C)cc4c3)nc12 [Example 236, 7-acetyl-5-(cyclopropylmethyl)-4-(6-cyclopropylpyridin-3-yl)-2-(2-methyl-2H-indazol-5-yl)-2,5-dihydro-3H-pyrrolo[3,2-c]pyridazin-3-one] | < 100 | < 100 | < 100 | > 1000 |
| Cn1cc2cc(-n3nc4c(I)cn(CC5CC5)c4c(-c4ccc(C5CC5)nc4)c3=O)ccc2n1 [Example 117, 5-(cyclopropylmethyl)-4-(6-cyclopropylpyridin-3-yl)-7-iodo-2-(2-methyl-2H-indazol-5-yl)-2,5-dihydro-3H-pyrrolo[3,2-c]pyridazin-3-one] | < 100 | < 100 | < 100 | > 1000 |
| Cn1cc2cc(-n3nc4c(Br)cn(CC5CC5)c4c(-c4ccc(C5CC5)nc4)c3=O)ccc2n1 [Example 238, 7-bromo-5-(cyclopropylmethyl)-4-(6-cyclopropylpyridin-3-yl)-2-(2-methyl-2H-indazol-5-yl)-2,5-dihydro-3H-pyrrolo[3,2-c]pyridazin-3-one] | < 100 | < 100 | < 100 | > 1000 |
| Cn1cc2cc(-n3nc4c(C(N)=O)cn(CC5CC5)c4c(-c4ccc(OC(F)F)cc4)c3=O)ccc2n1 [Example 168, 5-(cyclopropylmethyl)-4-(4-(difluoromethoxy)phenyl)-2-(2-methyl-2H-indazol-5-yl)-3-oxo-3,5-dihydro-2H-pyrrolo[3,2-c]pyridazine-7-carboxamide] | < 100 | < 100 | < 100 | > 1000 |
| [2H]C([2H])([2H])Oc1ccc(-n2nc3ccn(CC4CC4)c3c(-c3ccc(C)nc3)c2=O)cc1 [Example 134, 5-(cyclopropylmethyl)-2-(4-(methoxy-d3)phenyl)-4-(6-methylpyridin-3-yl)-2,5-dihydro-3H-pyrrolo[3,2-c]pyridazin-3-one] | 100 to 1000 | < 100 | < 100 | > 1000 |
| Cn1cc2cc(-n3nc4ccn(CC5CC5)c4c(-c4ccc(CO)nc4)c3=O)ccc2n1 [Example 157, 5-(cyclopropylmethyl)-4-(6-(hydroxymethyl)pyridin-3-yl)-2-(2-methyl-2H-indazol-5-yl)-2,5-dihydro-3H-pyrrolo[3,2-c]pyridazin-3-one] | < 100 | < 100 | < 100 | 100 to 1000 |
| [2H]C([2H])([2H])Oc1ccc(-c2c(=O)n(-c3ccc4nn(C)cc4c3)nc3c(C(=O)NC)cn(CC4CC4)c23)cc1 [Example 174, 5-(cyclopropylmethyl)-4-(4-(methoxy-d3)phenyl)-N-methyl-2-(2-methyl-2H-indazol-5-yl)-3-oxo-3,5-dihydro-2H-pyrrolo[3,2-c]pyridazine-7-carboxamide] | < 100 | < 100 | < 100 | 100 to 1000 |
| CN(C)S(=O)(=O)c1cn(CC2CC2)c2c(-c3ccc(C4CC4)nc3)c(=O)n(-c3ccc4nn(C)cc4c3)nc12 [Example 178, 5-(cyclopropylmethyl)-4-(6-cyclopropylpyridin-3-yl)-N,N-dimethyl-2-(2-methyl-2H-indazol-5-yl)-3-oxo-3,5-dihydro-2H-pyrrolo[3,2-c]pyridazine-7-sulfonamide] | > 1000 | > 1000 | 100 to 1000 | > 1000 |
| Cc1ccc(-c2c(=O)n(-c3ccc4nc(C)n(C)c4c3)nc3ccn(CC4CC4)c23)cn1 [Example 141, 5-(cyclopropylmethyl)-2-(1,2-dimethyl-1H-benzo[d]imidazol-6-yl)-4-(6-methylpyridin-3-yl)-2,5-dihydro-3H-pyrrolo[3,2-c]pyridazin-3-one] | < 100 | < 100 | < 100 | 100 to 1000 |
| C=C(CF)c1ccc(-c2c(=O)n(-c3ccc4nn(C)cc4c3)nc3c(C#N)cn(CC4CC4)c23)cn1 [Example 257, 5-(cyclopropylmethyl)-4-(6-(3-fluoroprop-1-en-2-yl)pyridin-3-yl)-2-(2-methyl-2H-indazol-5-yl)-3-oxo-3,5-dihydro-2H-pyrrolo[3,2-c]pyridazine-7-carbonitrile] | 100 to 1000 | 100 to 1000 | < 100 | > 1000 |
| Cn1cc2cc(-n3nc4c(C#N)cn(C[C@H]5CC5(F)F)c4c(-c4ccc(C5CC5)nc4)c3=O)ccc2n1 [Example 269, (R)-4-(6-cyclopropylpyridin-3-yl)-5-((2,2-difluorocyclopropyl)methyl)-2-(2-methyl-2H-indazol-5-yl)-3-oxo-3,5-dihydro-2H-pyrrolo[3,2-c]pyridazine-7-carbonitrile] | > 1000 | < 100 | < 100 | > 1000 |

Other lines, results leading:

| IC50 (HCT116 MTAP−/−) [nM] | IC50 [1] [nM] | IC50 (MAT2A homodimer) [nM] | IC50 (HCT116 MTAP+/+) [nM] | SMILES |
| --- | --- | --- | --- | --- |
| < 100 | < 100 | < 100 | 100 to 1000 | [2H]C([2H])([2H])Oc1ccc(-c2c(=O)n(-c3ccc4nn(C)cc4c3)nc3cnn(CC4CC4)c23)cc1 [Example 220, 1-(cyclopropylmethyl)-7-(4-(methoxy-d3)phenyl)-5-(2-methyl-2H-indazol-5-yl)-1,5-dihydro-6H-pyrazolo[4,3-c]pyridazin-6-one] |
| < 100 | < 100 | < 100 | 100 to 1000 | Cn1cc2cc(-n3nc4[nH]cc(CC5CC5)c4c(-c4ccc(OC(F)F)cc4)c3=O)ccc2n1 [Example 271, 5-(cyclopropylmethyl)-4-(4-(difluoromethoxy)phenyl)-2-(2-methyl-2H-indazol-5-yl)-2,7-dihydro-3H-pyrrolo[2,3-c]pyridazin-3-one] |
| < 100 | < 100 | < 100 | > 1000 | Cn1cc2cc(-n3nc4ccn(CC5CC5)c4c(-c4ccc(Cl)cc4)c3=O)ccc2n1 [Example 112, 4-(4-chlorophenyl)-5-(cyclopropylmethyl)-2-(2-methyl-2H-indazol-5-yl)-2,5-dihydro-3H-pyrrolo[3,2-c]pyridazin-3-one] |
| < 100 | < 100 | < 100 | > 1000 | [2H]C([2H])([2H])Oc1ccc(-c2c(=O)n(-c3ccc4nn(C)cc4c3)nc3c(C#N)cn(CC4CC4)c23)cc1 [Example 161, 5-(cyclopropylmethyl)-4-(4-(methoxy-d3)phenyl)-2-(2-methyl-2H-indazol-5-yl)-3-oxo-3,5-dihydro-2H-pyrrolo[3,2-c]pyridazine-7-carbonitrile] |
| 100 to 1000 | < 100 | < 100 | > 1000 | Cn1cc2cc(-n3nc4c(S(N)(=O)=O)cn(CC5CC5)c4c(-c4ccc(OC(F)F)cc4)c3=O)ccc2n1 [Example 184, 5-(cyclopropylmethyl)-4-(4-(difluoromethoxy)phenyl)-2-(2-methyl-2H-indazol-5-yl)-3-oxo-3,5-dihydro-2H-pyrrolo[3,2-c]pyridazine-7-sulfonamide] |
| < 100 | < 100 | < 100 | 100 to 1000 | O=c1c(-c2ccc(OC(F)F)cc2)c2c(ccn2CC2CC2)nn1-c1ccc2ncsc2c1 [Example 224, 2-(benzo[d]thiazol-6-yl)-5-(cyclopropylmethyl)-4-(4-(difluoromethoxy)phenyl)-2,5-dihydro-3H-pyrrolo[3,2-c]pyridazin-3-one] |
| < 100 | < 100 | < 100 | > 1000 | Cn1cc2cc(-n3nc4ccn(CC5CC5)c4c(-c4ccc(OC(F)F)cc4)c3=O)ccc2n1 [Example 101, 5-(cyclopropylmethyl)-4-(4-(difluoromethoxy)phenyl)-2-(2-methyl-2H-indazol-5-yl)-2,5-dihydro-3H-pyrrolo[3,2-c]pyridazin-3-one] |
